Read-outs that look alike come from different tables or passages of the source.
Experiments:
HCT116 cells [1] = assay: Arachidonic acid levels, release of 3H-AA into the media; format: cell-based, human; settings: for fold induction at 50 µM: 50 μM SUS, read-out: arachidonic acid levels relative to control; for increase in arachidonic acid: apoptosis-inducing doses of SUS
Method: (§1) FIGS. 4A, 4B, 4C, 4D, 4E and 4F. The role of arachidonic acid in NSAID-mediated apoptosis. […] HCT116 and SW480 cells were treated with the indicated concentrations of SUS or INDO. Arachidonic acid (AA) levels were determined by measuring release of ^3 H-AA into the media as previously described (18). Data are indicated as the mean of three replicates with the error bars corresponding to the standard deviation. In addition, the nature of the released radiolabeled material was evaluated by thin layer chromatography as previously described (28). […] HCT116 and SW480 cells were incubated with ^3 H-choline chloride (0.5 mCi ml^-1, 80 Ci mmol^-1, New England Nuclear) for 48 hours. After labeling, cells were washed with HBSS (Gibco) and treated with SUS or INDO for the indicated times. Sphingomyelin measurements were performed using the bacterial sphingomyelinase method as previously described (18). Sphingomyelin levels at each time point are plotted as a percentage of that in untreated control cells. For each point, the mean of at least two independent experiments is presented with the error bars corresponding to the standard deviations. […] SW480 cells were treated with 200 μM arachidonic acid (AA), SUS (SUS) or behenic acid as a control fatty acid (FA) as indicated. […] SW480 cells were treated with suboptimal doses (100 μM) of arachidonic acid (AA), SUS (SUS), or both (AA+SUS) as indicated. After 48 hours of treatment, apoptosis and ceramide increases were assessed as described for FIGS. 1 and 3, respectively. Ceramide increases (left axis) were expressed as fold increases relative to untreated cells. Apoptosis (right axis) was expressed as percent apoptotic cells minus percent apoptotic cells in untreated cells (5.6%+/-2.4). Data are indicated as the mean of duplicates with the error bars corresponding to the standard deviation.
(§2) Arachidonic acid is known to stimulate neutral sphingomyelinase (18), which catalyzes the conversion of sphingomyelin to ceramide. We therefore considered the possibility that inhibition of COX activity might lead to increases in arachidonic acid, the substrate for COX. To test this hypothesis, we first determined whether SUS stimulated arachidonic acid accumulation. In both SW480 and HCT 116 cells, apoptosis-inducing doses of SUS increased arachidonic acid by 2 to 3 fold at 24 hours and by approximately 5 fold at 48 hours (FIGS. 4A and 4B). The arachidonic acid increase following SUS treatment was as great as that following treatment with mellitin, a known activator of phospholipase A2. Arachidonic acid levels in HCT116 cells increased 3.5 fold one hour after treatment with 1 μM mellitin. Likewise, arachidonic acid levels increased 2.9 fold in SW480 cells one hour after mellitin treatment. Arachidonic acid (AA) levels were determined by measuring release of ^3 H-AA into the media as previously described (18). The nature of released radiolabeled material was evaluated by thin layer chromatography analysis as previously described (28).

HCT116 cells [2] = assay: Sphingomyelin levels, bacterial sphingomyelinase method; format: cell-based, human
Method: as §1
(§3) To test whether the increased ceramide was associated with evidence of augmented sphingomyelinase activity, we measured total sphingomyelin levels after SUS treatment. […] We also measured neutral sphingomyelinase activity in lysates from the treated cells and no differences were found. Neutral sphingomyelinase activity was assayed as described (18). After cell lysis, protein concentrations were determined using the Bradford method (Bio-Rad) and […] cellular protein was used in each assay. Neutral sphingomyelinase activity was determined by measuring the rate of hydrolysis of ^14 C-labelled sphingomyelin (Amersham). SW480 and HCT116 cell lines were treated with SUS (50, 200, and 600 μM) for 6 to 24 hours.

SW480 cells [3] = assay: as above; format: cell-based, human
Method: as §1, §3

SW480 cells [4] = format: cell-based, human
Method: FIGS. 1A, 1B and 1C NSAID induce apoptosis in human colorectal cancer cells. In FIG. 1A, HCT116 and SW480 cells were treated with indomethacin (INDO) (300 μM) or SUS (125 μM for HCT116 and 200 μM for SW480 cells). Cells were collected at the indicated times, fixed and stained with Hoechst 33258 (23). The cells were counted and those with fragmented nuclei were scored as apoptotic. In FIG. 1B, HCT116 and SW480 cells were treated with SUS or INDO for 60 hours, harvested and stained as described above. Cells treated with SUS or INDO show the hallmarks of apoptosis.
This death appeared to be apoptotic, as it was accompanied by nuclear condensation and fragmentation (FIG. 1B) and exposure of phosphatidylserine groups on the cell surface, two hallmarks of apoptosis (11, 12).

SW480 cells [5] = assay: cells; format: cell-based, human; settings: for increase in arachidonic acid: apoptosis-inducing doses of SUS
Method: as §1, §2

[6] = tested on: primary human diploid fibroblast (HDF); assay: Apoptosis in primary fibroblasts; format: cell-based; settings: 200 μM SUS, 48 hours, read-out: cells that had undergone apoptosis
Method: (§4) This ability of SUS is not limited to colon cancer cells; primary fibroblasts and immortalized keratinocytes can increase ceramide levels and undergo apoptosis in response to SUS. […] Forty-eight hours after exposure to 200 μM SUS greater than 70% of the cells had undergone apoptosis and ceramide levels were 8.2 and 4.7 fold increased in HDF and HaCat cells, respectively. This is consistent with NSAIDs' ability to reduce tumor formation in a variety of tissues (19) and their adverse effects on normal gastric mucosa, but it fails to explain the apparent greater sensitivity of tumor cells. The in vivo effect will likely depend on the local concentration of the NSAID in the incipient tumor microenvironment as well as the target cell's "lipid biostat" (20). The fact that the concentration of SUS is higher in the intestines than in other organs, due to enterohepatic circulation and due to the metabolic activation of sulindac to SUS by gut flora (21), may be responsible for its particular efficacy in intestinal tumorigenesis.

COX in HCT116 cells = assay: COX activity in treated cells; format: cell-based, human
SW480 cells [7] = format: cell-based, human; settings: SUS 100 μM
[8] = tested on: immortalized human keratinocytes (HaCat); assay: Apoptosis in immortalized keratinocytes; format: cell-based; settings: 48 h, read-out: cells that had undergone apoptosis
Method: as §4

## CSc1ccc(/C=C2/C(C)=C(CC(=O)O)c3cc(F)ccc32)cc1 [SUS, sulindac sulfide]
HCT116 cells [1]; Homo sapiens, HCT-116, 8 hours
  fold induction at 50 µM: 0.9
HCT116 cells [1]; Homo sapiens, HCT-116, 16 hours
  fold induction at 50 µM: 1.05
HCT116 cells [1]; Homo sapiens, HCT-116, 24 hours
  fold induction at 50 µM: 1.14
HCT116 cells [1]; Homo sapiens, HCT-116, 200 μM SUS, 16 hours, read-out: increase in arachidonic acid
  fold induction at 200 µM: 5.1
HCT116 cells [1]; 24 hours
  increase in arachidonic acid: 2 to 3 fold
HCT116 cells [1]; 48 hours
  increase in arachidonic acid: approximately 5 fold
HCT116 cells [2]; 48 hours after SUS treatment
  decrease in sphingomyelin levels: 40-50%
HCT116 cells [2]; suboptimal doses of SUS
  decrease in sphingomyelin levels: inadequate to decrease sphingomyelin levels
SW480 cells [3]; 48 hours after SUS treatment
  decrease in sphingomyelin levels: 40-50%
SW480 cells [3]; suboptimal doses of SUS
  decrease in sphingomyelin levels: inadequate to decrease sphingomyelin levels
SW480 cells [4]; 200 μM SUS, 16 hours
  apoptosis: the majority of cells had not yet undergone apoptosis
SW480 cells [4]; SUS 200 μM, with or without 10 μM CHX, 48 hours
  apoptosis: underwent apoptosis
SW480 cells [5]; Homo sapiens, SW480, 200 μM SUS, 16 hours, read-out: increase in arachidonic acid
  fold induction at 200 µM: 3.4
SW480 cells [5]; 24 hours
  increase in arachidonic acid: 2 to 3 fold
SW480 cells [5]; 48 hours
  increase in arachidonic acid: approximately 5 fold
[6]
  cytotoxicity at 200 µM: > 70%
COX in HCT116 cells; 50 μM SUS
  COX activity, % relative to controls: 98+/-30%
COX in HCT116 cells; 125 μM SUS
  COX activity, % of controls: 21+/-15%
SW480 cells [7]
  cell death: not at 100 μM
[8]
  cytotoxicity at 200 µM: > 70%

Reference: patent US5874235A, “Screening assays for cancer chemopreventative agents” (The Johns Hopkins University, priority 1997, dated 1999)
